Test results published in patent US8703165B2, “Spiro fused 1-amino-piperdine pyrrolidine dione derivatives with pesticidal activity” (Syngenta Crop Protection, Inc., priority 2009, dated 2014).

melting point: > 200 °C
Compound: Cc1cc(C)c(C2C(=O)OC3(CCN(N(C)C)CC3)C2=O)c(C)c1 (stereo not shown) [A11, 8-Dimethylamino-3-(2,4,6-trimethyl-phenyl)-1-oxa-8-azaspiro[4.5]decane-2,4-dione]
